Data set [1] can be described thus: Cytotoxicity against human HT-29 cells assessed as reduction in cell viability by celltiter-glo luminescent cell viability assay. The data set is classed as toxicity, cell-based. On the technique in general: ATP-based viability assays read luminescence as a measure of living cells.
Data set [2] concerns the target T1, Receptor-interacting serine/threonine-protein kinase 1 (Homo sapiens) (UniProt Q13546).
T1 sequence (whole entry): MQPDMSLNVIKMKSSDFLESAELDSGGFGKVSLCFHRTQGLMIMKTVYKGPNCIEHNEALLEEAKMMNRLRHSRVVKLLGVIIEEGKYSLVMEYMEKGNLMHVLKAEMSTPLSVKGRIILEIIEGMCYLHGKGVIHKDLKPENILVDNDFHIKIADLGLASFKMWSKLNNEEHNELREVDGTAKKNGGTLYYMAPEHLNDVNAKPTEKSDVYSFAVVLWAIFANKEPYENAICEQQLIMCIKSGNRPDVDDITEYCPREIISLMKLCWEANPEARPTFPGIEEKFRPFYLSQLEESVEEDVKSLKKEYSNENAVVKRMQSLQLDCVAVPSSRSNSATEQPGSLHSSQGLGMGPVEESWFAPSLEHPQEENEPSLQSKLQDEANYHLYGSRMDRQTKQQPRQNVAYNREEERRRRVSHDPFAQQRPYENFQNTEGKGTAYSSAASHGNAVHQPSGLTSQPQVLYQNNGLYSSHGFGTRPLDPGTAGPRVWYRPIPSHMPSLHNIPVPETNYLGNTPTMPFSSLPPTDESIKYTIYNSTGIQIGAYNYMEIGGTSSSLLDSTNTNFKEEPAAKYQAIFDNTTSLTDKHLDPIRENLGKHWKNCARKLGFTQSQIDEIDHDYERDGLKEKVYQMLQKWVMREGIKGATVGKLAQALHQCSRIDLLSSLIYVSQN
Kind of data set: Inhibition of RIPK1 in human HT-29 cells assessed as reduction in TCZ induced necroptosis at 0.2 to 25 nM pretreated with compound followed by TCZ stimulation for 16 hrs by celltiter-glo luminescent cell viability assay. The data set is classed as cell-based. To be noted: dose 0.2-25 nM.

The target of data set [3] is T2, Receptor-interacting serine/threonine-protein kinase 1 (Mus musculus) (UniProt Q60855).
T2 sequence (whole entry): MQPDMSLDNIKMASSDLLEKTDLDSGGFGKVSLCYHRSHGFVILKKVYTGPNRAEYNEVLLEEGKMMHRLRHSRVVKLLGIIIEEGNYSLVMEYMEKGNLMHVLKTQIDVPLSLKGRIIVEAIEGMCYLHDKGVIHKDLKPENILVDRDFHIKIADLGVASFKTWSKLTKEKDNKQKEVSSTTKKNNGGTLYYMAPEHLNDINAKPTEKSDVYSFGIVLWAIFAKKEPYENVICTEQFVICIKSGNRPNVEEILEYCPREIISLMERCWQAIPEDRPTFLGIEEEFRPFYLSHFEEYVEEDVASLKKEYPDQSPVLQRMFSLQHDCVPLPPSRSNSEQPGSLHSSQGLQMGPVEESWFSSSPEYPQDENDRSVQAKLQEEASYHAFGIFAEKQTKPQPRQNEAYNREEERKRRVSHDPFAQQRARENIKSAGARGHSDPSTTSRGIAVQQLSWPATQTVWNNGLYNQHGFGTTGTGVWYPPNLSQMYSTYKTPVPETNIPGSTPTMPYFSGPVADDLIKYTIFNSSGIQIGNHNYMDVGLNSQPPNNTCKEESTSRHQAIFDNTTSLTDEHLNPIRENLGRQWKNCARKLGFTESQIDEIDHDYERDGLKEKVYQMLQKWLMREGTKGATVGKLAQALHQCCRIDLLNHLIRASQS
The experiment in a line: Inhibition of RIPK1 in mouse L929 cells assessed as reduction in TZ induced necroptosis pretreated with compound followed by TZ stimulation for 4 hrs by celltiter-glo luminescent cell viability assay. The data set is classed as cell-based. To be noted: dose 0.000781-0.025 µM, DDE = dose-dependent effect.

The subject of data set [4] is HT-29. The experiment in a line: Inhibition of RIPK1 expression in TSZ induced human HT-29 cells at 1 uM pretreated with compound followed by TSZ stimulation upto 6 hrs by immunoblotting analysis. The data set is classed as functional, cell-based. Background: A western blot detects proteins with antibodies after separation by electrophoresis.
The target in data set [5] is T3, Mixed lineage kinase domain-like protein (Homo sapiens) (UniProt Q8NB16).
T3 sequence (whole entry): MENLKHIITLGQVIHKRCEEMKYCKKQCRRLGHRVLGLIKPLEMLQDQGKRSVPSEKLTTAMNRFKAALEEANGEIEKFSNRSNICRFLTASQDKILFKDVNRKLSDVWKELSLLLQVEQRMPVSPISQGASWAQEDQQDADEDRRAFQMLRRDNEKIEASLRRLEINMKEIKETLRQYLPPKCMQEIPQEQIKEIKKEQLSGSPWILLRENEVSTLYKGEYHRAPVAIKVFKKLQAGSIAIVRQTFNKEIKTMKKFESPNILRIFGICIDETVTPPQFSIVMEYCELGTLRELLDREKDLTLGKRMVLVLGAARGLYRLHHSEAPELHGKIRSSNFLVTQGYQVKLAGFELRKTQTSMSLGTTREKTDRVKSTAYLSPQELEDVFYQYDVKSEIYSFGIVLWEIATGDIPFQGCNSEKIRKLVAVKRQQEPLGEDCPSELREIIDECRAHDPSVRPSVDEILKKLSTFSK
Kind of data set: Inhibition of MLKL phosphorylation in TSZ induced human HT-29 cells at 1 uM pretreated with compound followed by TSZ stimulation upto 6 hrs by immunoblotting analysis. The data set is classed as cell-based.

In data set [6] the test system is Mus musculus. Kind of data set: Anti-necroptosis activity against TNFalpha-induced C57BL/6 mouse model of systemic inflammatory response syndrome assessed as protection against hypothermia at 20 to 40 mg/kg, IG pretreated for 1 hr followed by TNFalpha stimulation relative to control. The data set is classed as functional. The note with it: dose 20-40 mg/kg.
For data set [7], the system named is Mus musculus. The experiment in a line: Antialzheimer activity against STZ induced C57BL/6 mouse model of cognitive dysfunction assessed as increase in preference index at 1 mg/kg, IG administered once daily for 7 days by novel object recognition test. The data set is classed as functional, organism-based. To be noted: time 7.0 day.
The subject of data set [8] is Mus musculus. The experiment in a line: Antialzheimer activity against STZ induced C57BL/6 mouse model of cognitive dysfunction assessed as increase in quadrant time at 1 mg/kg, IG administered once daily for 7 days. The data set is classed as functional, organism-based. The note with it: time 7.0 day.
The species entered for data set [9] is Mus musculus. Kind of data set: Antialzheimer activity against STZ induced C57BL/6 mouse model of cognitive dysfunction assessed as restoration of hippocampal morphology by Nissl staining based analysis. The data set is classed as functional, organism-based.
The species entered for data set [10] is Mus musculus. The experiment in a line: Antialzheimer activity against STZ induced C57BL/6 mouse model of cognitive dysfunction assessed as decrease in p-Tau level in frontal cortex by Western blot analysis. The data set is classed as functional, organism-based.
The species entered for data set [11] is Mus musculus. The experiment in a line: Antialzheimer activity against STZ induced C57BL/6 mouse model of cognitive dysfunction assessed as downregulation of IL-1 beta in frontal cortex. The data set is classed as functional, organism-based.
The species entered for data set [12] is Mus musculus. Kind of data set: Antialzheimer activity against STZ induced C57BL/6 mouse model of cognitive dysfunction assessed as downregulation of IL-1 beta in hippocampus. The data set is classed as functional, organism-based.

Activity calls are given as the source filed them. No cut-off for these calls is given here. A value given as a limit tells only on which side of the number the result lay.

The CC50 is the concentration at which the toxic effect on the cells reaches its halfway point. `O=C1CC(C(=O)Nc2nc3cc(Oc4ccc(F)c(NC(=O)Cc5cccc(OC(F)(F)F)c5)c4)c(F)cc3s2)C1`: in [1], the CC50 was above 50 µM. The inhibition result in data set [2], in [4] and in data set [5] was “Active” throughout. The Activity result is “Dde” in data set [3] and 100% in data set [6]. For the same molecule, the result in data set [7], in data set [8], in data set [9], in [10], in [11] and in [12] was Active.

The record behind these values is ChEMBL document CHEMBL5096222, “Discovery of a Trifluoromethoxy Cyclopentanone Benzothiazole Receptor-Interacting Protein Kinase 1 Inhibitor as the Treatment for Alzheimer's Disease” (J Med Chem, 2022).
